According to the NIST ThermoML archive (doi:10.1021/je100760v):
Numbers after ± are expanded uncertainties.

Assay: osmotic coefficient (dimensionless); mn = molality of the nth substance listed, in mol/kg
Conditions: Liquid, isopiestic method

O.O=C([O-])C(=O)[O-].[K+].[K+] [potassium oxalate monohydrate] + O
Conditions | osmotic coefficient
298.15 K, m1 = 0.2731 | 0.764 ± 0.012
298.15 K, m1 = 0.3247 | 0.747 ± 0.013
298.15 K, m1 = 0.3721 | 0.742 ± 0.013
298.15 K, m1 = 0.4551 | 0.736 ± 0.013
298.15 K, m1 = 0.4898 | 0.737 ± 0.013
298.15 K, m1 = 0.5836 | 0.735 ± 0.013
298.15 K, m1 = 0.7175 | 0.741 ± 0.013
298.15 K, m1 = 0.8532 | 0.747 ± 0.013
298.15 K, m1 = 0.879 | 0.746 ± 0.013
298.15 K, m1 = 1.163 | 0.76 ± 0.012
298.15 K, m1 = 1.224 | 0.76 ± 0.012
298.15 K, m1 = 1.403 | 0.77 ± 0.012
298.15 K, m1 = 1.446 | 0.771 ± 0.011
298.15 K, m1 = 1.553 | 0.775 ± 0.011
298.15 K, m1 = 1.631 | 0.777 ± 0.011
298.15 K, m1 = 1.763 | 0.782 ± 0.011
298.15 K, m1 = 1.86 | 0.789 ± 0.011
298.15 K, m1 = 1.865 | 0.787 ± 0.011
298.15 K, m1 = 1.961 | 0.791 ± 0.01
298.15 K, m1 = 2.166 | 0.801 ± 0.01
308.15 K, m1 = 0.197 | 0.768 ± 0.012
308.15 K, m1 = 0.2519 | 0.745 ± 0.013
308.15 K, m1 = 0.2974 | 0.737 ± 0.013
308.15 K, m1 = 0.3637 | 0.734 ± 0.013
308.15 K, m1 = 0.4596 | 0.726 ± 0.014
308.15 K, m1 = 0.5269 | 0.72 ± 0.014
308.15 K, m1 = 0.5465 | 0.719 ± 0.014
308.15 K, m1 = 0.5956 | 0.719 ± 0.014
308.15 K, m1 = 0.6873 | 0.722 ± 0.014
308.15 K, m1 = 0.7481 | 0.721 ± 0.014
308.15 K, m1 = 0.8067 | 0.719 ± 0.014
308.15 K, m1 = 0.8889 | 0.721 ± 0.014
308.15 K, m1 = 0.9189 | 0.724 ± 0.014
308.15 K, m1 = 1.088 | 0.73 ± 0.014
308.15 K, m1 = 1.269 | 0.739 ± 0.013
308.15 K, m1 = 1.541 | 0.751 ± 0.012
308.15 K, m1 = 1.754 | 0.768 ± 0.012
308.15 K, m1 = 1.933 | 0.777 ± 0.011
308.15 K, m1 = 1.991 | 0.782 ± 0.011
308.15 K, m1 = 2.108 | 0.792 ± 0.01
308.15 K, m1 = 2.305 | 0.804 ± 0.01
318.15 K, m1 = 0.2751 | 0.729 ± 0.014
318.15 K, m1 = 0.3201 | 0.725 ± 0.014
318.15 K, m1 = 0.3228 | 0.721 ± 0.014
318.15 K, m1 = 0.4383 | 0.709 ± 0.015
318.15 K, m1 = 0.4892 | 0.709 ± 0.015
318.15 K, m1 = 0.596 | 0.705 ± 0.015
318.15 K, m1 = 0.7938 | 0.704 ± 0.015
318.15 K, m1 = 0.8879 | 0.707 ± 0.015
318.15 K, m1 = 1.088 | 0.715 ± 0.014
318.15 K, m1 = 1.261 | 0.72 ± 0.014
318.15 K, m1 = 1.296 | 0.725 ± 0.014
318.15 K, m1 = 1.643 | 0.749 ± 0.013
318.15 K, m1 = 1.671 | 0.748 ± 0.013
318.15 K, m1 = 1.72 | 0.754 ± 0.012
318.15 K, m1 = 1.738 | 0.752 ± 0.012
318.15 K, m1 = 1.869 | 0.763 ± 0.012
318.15 K, m1 = 2.217 | 0.78 ± 0.011
